{
  "source": "paper PMC6723713",
  "about": "“Purification, Characterization and Evaluation of Inhibitory Mechanism of ACE Inhibitory Peptides from Pearl Oyster (Pinctada fucata martensii) Meat Protein Hydrolysate” (Marine Drugs, 2019)",
  "key": {"ACE [1]": {"target": "T1, ACE (Oryctolagus cuniculus, UniProt P12822)", "T1 construct": "purchased Sigma-Aldrich (Shanghai, China)", "T1 sequence (P12822 34-1310)": "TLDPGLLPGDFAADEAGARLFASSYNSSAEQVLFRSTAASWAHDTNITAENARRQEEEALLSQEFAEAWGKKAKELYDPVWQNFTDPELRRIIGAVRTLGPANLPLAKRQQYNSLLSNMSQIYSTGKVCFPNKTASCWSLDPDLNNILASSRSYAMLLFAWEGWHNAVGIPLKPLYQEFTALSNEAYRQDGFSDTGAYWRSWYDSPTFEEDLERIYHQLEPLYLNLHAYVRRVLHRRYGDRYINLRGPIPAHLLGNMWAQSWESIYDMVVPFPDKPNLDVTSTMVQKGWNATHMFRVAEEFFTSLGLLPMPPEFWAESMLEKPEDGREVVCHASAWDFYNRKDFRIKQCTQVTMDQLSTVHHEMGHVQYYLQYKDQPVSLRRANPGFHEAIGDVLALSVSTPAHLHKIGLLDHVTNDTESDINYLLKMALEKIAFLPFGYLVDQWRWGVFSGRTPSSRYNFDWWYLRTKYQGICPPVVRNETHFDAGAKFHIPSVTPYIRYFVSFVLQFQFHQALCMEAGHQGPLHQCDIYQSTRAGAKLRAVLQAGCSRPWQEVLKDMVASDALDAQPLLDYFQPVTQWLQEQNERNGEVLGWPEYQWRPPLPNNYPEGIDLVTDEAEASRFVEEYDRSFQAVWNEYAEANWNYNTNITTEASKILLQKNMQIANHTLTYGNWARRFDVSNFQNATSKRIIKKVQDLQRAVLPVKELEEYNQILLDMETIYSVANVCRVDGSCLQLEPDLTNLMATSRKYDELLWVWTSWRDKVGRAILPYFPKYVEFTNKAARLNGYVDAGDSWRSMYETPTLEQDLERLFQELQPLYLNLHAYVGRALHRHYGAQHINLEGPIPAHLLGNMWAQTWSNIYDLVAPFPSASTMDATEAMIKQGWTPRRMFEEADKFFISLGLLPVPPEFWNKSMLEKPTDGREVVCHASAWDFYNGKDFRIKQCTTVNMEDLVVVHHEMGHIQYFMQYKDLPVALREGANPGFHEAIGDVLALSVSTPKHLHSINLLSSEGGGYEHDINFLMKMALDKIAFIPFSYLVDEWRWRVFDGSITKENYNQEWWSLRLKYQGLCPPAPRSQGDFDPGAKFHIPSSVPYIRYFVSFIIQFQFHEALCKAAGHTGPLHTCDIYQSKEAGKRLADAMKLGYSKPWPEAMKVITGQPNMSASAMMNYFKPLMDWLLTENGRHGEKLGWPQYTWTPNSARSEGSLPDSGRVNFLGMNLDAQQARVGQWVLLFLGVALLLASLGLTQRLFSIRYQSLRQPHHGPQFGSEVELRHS", "experiment": "Inhibition pattern by Lineweaver-Burk plot", "format": "biochemical", "details": "HHL 1-5 mM, HLHT 0, 295.86, 591.72 μM, GWA 0, 98.62, 197.24 μM, pre-incubated 37 °C 10 min, 5 min incubation with HHL, HPLC 228 nm", "description": "The inhibitory patterns of purified peptides HLHT and GWA on ACE were evaluated by incubating various concentrations (1, 2, 3, 4, and 5 mM) of HHL with ACE in the absence and presence of inhibitory peptides. The concentrations of HLHT were set as 0, 295.86, and 591.72 μM while those of GWA were set as 0, 98.62, and 197.24 μM. The purified ACE inhibitory peptide (30 µL) at various concentrations and ACE solution (30 µL) were mixed and pre-incubated at 37 °C for 10 min. Subsequently, HHL (40 µL) was added and incubated for 5 min at 37 °C. The reaction was terminated by adding 1 M HCl (150 µL). The released hippuric acid (HA) was quantified using HPLC at 228 nm. The ACE inhibitory pattern in the presence of the inhibitor was determined using the Lineweaver–Burk plot, where the reciprocal of HHL concentration was used as the independent variable (X-axis) and the reciprocal of production rate of HA as the dependent variable (Y-axis)."}, "[2]": {"target": "T2, Angiotensin-I-converting enzyme (ACE) (Oryctolagus cuniculus, UniProt P12822)", "T2 construct": "purchased Sigma-Aldrich (Shanghai, China)", "T2 sequence (P12822 34-1310)": "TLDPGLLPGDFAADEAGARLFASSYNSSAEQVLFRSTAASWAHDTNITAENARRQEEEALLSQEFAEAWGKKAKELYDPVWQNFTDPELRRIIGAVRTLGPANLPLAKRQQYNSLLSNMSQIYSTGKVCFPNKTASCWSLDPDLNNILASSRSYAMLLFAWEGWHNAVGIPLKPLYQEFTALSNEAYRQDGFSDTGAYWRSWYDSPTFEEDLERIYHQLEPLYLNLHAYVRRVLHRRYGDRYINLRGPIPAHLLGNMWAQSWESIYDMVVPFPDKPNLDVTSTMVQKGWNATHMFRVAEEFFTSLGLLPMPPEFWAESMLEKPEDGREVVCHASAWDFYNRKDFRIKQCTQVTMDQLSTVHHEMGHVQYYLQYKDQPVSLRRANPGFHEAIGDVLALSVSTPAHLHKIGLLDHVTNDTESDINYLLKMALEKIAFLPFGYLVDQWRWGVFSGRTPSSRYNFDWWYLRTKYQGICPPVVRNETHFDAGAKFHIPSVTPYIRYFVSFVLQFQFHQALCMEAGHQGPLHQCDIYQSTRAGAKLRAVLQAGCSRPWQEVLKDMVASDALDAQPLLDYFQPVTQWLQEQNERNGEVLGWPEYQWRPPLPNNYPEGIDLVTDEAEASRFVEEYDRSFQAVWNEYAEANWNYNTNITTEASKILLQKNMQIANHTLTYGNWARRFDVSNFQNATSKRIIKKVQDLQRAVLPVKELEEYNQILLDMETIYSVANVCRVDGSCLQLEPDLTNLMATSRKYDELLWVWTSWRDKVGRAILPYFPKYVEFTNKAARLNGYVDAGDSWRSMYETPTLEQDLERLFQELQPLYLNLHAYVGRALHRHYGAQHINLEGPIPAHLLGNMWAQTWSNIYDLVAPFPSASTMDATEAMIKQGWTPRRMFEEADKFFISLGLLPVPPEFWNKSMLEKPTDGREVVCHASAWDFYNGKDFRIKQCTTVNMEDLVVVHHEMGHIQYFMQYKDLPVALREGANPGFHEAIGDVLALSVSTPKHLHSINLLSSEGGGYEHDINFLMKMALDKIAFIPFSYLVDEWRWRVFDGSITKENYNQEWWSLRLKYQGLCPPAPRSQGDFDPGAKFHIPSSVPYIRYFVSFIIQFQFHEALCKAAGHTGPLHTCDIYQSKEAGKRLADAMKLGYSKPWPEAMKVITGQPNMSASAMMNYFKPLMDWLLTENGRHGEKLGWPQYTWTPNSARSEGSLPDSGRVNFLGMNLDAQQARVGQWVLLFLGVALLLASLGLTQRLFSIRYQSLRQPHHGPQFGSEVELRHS", "experiment": "In vitro assay of ACE inhibitory activity", "format": "biochemical", "details": "triplicate, mean ± SD; for ACE inhibitory activity: 0.54 mg/mL protein concentration, second RP-HPLC fractions; for IC50: logarithmic regression", "description": "ACE inhibitory activity in vitro was measured according to the reported method. The activity was determined for each step of separation, and fraction with the highest ACE inhibitory activity was collected for further purification. The IC50 value (the concentration of peptide inhibiting 50% of enzyme activity) was determined by logarithmic regression analysis.\n(§1) All the experiments were performed in triplicate and mean values with ± SD (standard deviation) were reported. All data were analyzed by one-way ANOVA, using SPSS 17.0 software (Chicago, IL, USA). A value of p < 0.05 was considered statistically significant."}, "SD rats": {"tested_on": "SD rats", "experiment": "Antihypertensive activity in SD rats, SBP and DBP after intravenous administration", "format": "in vivo", "details": "10 mg/kg", "description": "The antihypertensive efficacy of POMPH was evaluated in male SD rats (10 weeks old, 250 ± 30 g body weight, specific pathogen-free, provided by the animal experimental center of Guangxi medical University, China). All rats were cared and fed following the standards for laboratory animals established by People’s Republic of China (GB14925-2001) and animal handling followed the Declaration of Helsinki and the Guiding Principles in the Care and Use of Animals. The rats were exposed to intraperitoneal injection L-NNA (L-nitro-arginine) once a day for four weeks prior to the experiments. The POMPH at 10 mg/kg, dissolved in a vehicle of 0.9% NaCl, were intravenously administered. The concentration of HLHT and GWA in POMPH were 1.8 µg/mg and 1.2 µg/mg, respectively. The efficacy of POMPH on lowering SBP and diastolic blood pressure (DBP) was compared to that of captopril (10 mg/kg). Control rats were administrated with the same volume of saline solution. SBP and DBP were determined by the noninvasive tail cuff method using BP-2010 (Softron Beijing biotechnology Co., Ltd) at 0 min (before) and 5, 10, 20 and 45 min after the administration.\nas §1"}, "ACE [3]": {"target": "T1, ACE", "details": "cited from earlier work", "source_text": "Table 2 Summary of ACE inhibitory peptides having similar structure with purified peptides. | column: IC50 (μM) || Table 3 Inhibition pattern of ACE inhibitory peptides derived from marine products. | column: Inhibition Pattern; IC50 (μM)"}, "[4]": {"details": "synthesized peptide (98% purity)"}},
  "note": "Like-named read-outs stand apart in the source and are kept apart here. Where a SMILES comes first, the peptide text is derived from it.",
  "data": [
    {"compound": "C[C@H](NC(=O)[C@H](Cc1c[nH]c2ccccc12)NC(=O)CN)C(=O)O", "note": "[GWA, Gly-Trp-Ala] (H-Gly-Trp-Ala-OH)", "values": [
      {"measurement": "Inhibition Pattern", "setting": "ACE [1]", "value": "competitive inhibition pattern"},
      {"measurement": "ACE inhibitory activity", "setting": "[2]", "value": "84.71 ± 1.27", "unit": "%"},
      {"measurement": "IC50", "setting": "[2]; peptide purified from POMPH", "value": "109 ± 1.45", "unit": "µM"},
      {"measurement": "IC50", "setting": "[2]; [4]", "value": "98.9 ± 5.73", "unit": "µM"}
    ]},
    {"compound": "CC(C)C[C@H](NC(=O)[C@@H](N)Cc1c[nH]cn1)C(=O)N[C@@H](Cc1c[nH]cn1)C(=O)N[C@H](C(=O)O)[C@@H](C)O", "note": "[HLHT, His-Leu-His-Thr] (H-HLHT-OH)", "values": [
      {"measurement": "ACE inhibitory activity", "setting": "[2]", "value": "64.73 ± 1.32", "unit": "%"},
      {"measurement": "IC50", "setting": "[2]; peptide purified from POMPH", "value": "458.1 ± 3.24", "unit": "µM"},
      {"measurement": "IC50", "setting": "[2]; [4]", "value": "452.2 ± 2.36", "unit": "µM"}
    ]},
    {"compound": "C[C@H](CS)C(=O)N1CCC[C@H]1C(=O)O", "note": "[captopril]", "values": [
      {"measurement": "change in SBP vs control, in words", "setting": "SD rats; 0-45 min", "value": "significant decrease in SBP"},
      {"measurement": "maximum decrease in SBP", "setting": "SD rats; 20 min, male L-NNA-treated SD rats, tail cuff", "value": 27.0, "unit": "mmHg"},
      {"measurement": "SBP beyond 20 min", "setting": "SD rats; beyond 20 min (to 45 min)", "value": "remained stable"},
      {"measurement": "change in DBP vs control, in words", "setting": "SD rats; in comparison with control group", "value": "significantly changed in comparison with control group"},
      {"measurement": "DBP after 20 min of intravenous administration", "setting": "SD rats; \"decreased to\", 20 min, male L-NNA-treated SD rats, tail cuff", "value": 39.5, "unit": "mmHg"}
    ]},
    {"compound": "CRQHTLGHNT-QTSIAQ", "values": [
      {"measurement": "Inhibition Pattern", "setting": "ACE [3]; ref [32]", "value": "Non-competitive"}
    ]},
    {"compound": "CRQHTLGHNT-QTSIAQ (CRQHTLGHNTQTSIAQ)", "values": [
      {"measurement": "IC50", "setting": "ACE [3]; ref [32]", "value": 80, "unit": "µM"}
    ]},
    {"compound": "EVSQGRP", "values": [
      {"measurement": "IC50", "setting": "ACE [3]; ref [32]", "value": 50, "unit": "µM"},
      {"measurement": "Inhibition Pattern", "setting": "ACE [3]; ref [32]", "value": "Mixed inhibition"}
    ]},
    {"compound": "FEDYVPLSCF", "values": [
      {"measurement": "IC50", "setting": "ACE [3]; ref [31]", "value": 10.8, "unit": "µM"},
      {"measurement": "Inhibition Pattern", "setting": "ACE [3]; ref [31]", "value": "Mixed inhibition"}
    ]},
    {"compound": "GDLGKTTTVSN-WSPPKYKDTP", "values": [
      {"measurement": "Inhibition Pattern", "setting": "ACE [3]; ref [33]", "value": "Non-competitive"}
    ]},
    {"compound": "GDLGKTTTVSN-WSPPKYKDTP (GDLGKTTTVSNWSPPKYKDTP)", "values": [
      {"measurement": "IC50", "setting": "ACE [3]; ref [33]", "value": 11.3, "unit": "µM"}
    ]},
    {"compound": "GWAP", "values": [
      {"measurement": "IC50", "setting": "ACE [3]; ref [28]", "value": 3.86, "unit": "µM"}
    ]}
  ]
}
